Results: US20230346831A1, “METHODS FOR TREATING […] USING LOW DOSE CARBON MONOXIDE” (priority 2020, published 2023)
“And” between values parts separate entries of the source, which are not always exact repeats. Equal entries are not always repeated.

Test system: MCF7/TGL cells
Assay: metabolomic assay (polar metabolite profiling, mass spectrometry)
Type: cell-based, human
Procedure: Extraction and analysis were performed with the same parameters as the method disclosed in FIG. 7.
7 × 10^6 cells were seeded in 10-cm cell culture plates with DMEM containing 10% FBS, 0.2 mM L-glutamine and 1% penicillin/streptomycin. Additionally, MCF7/TGL/pQ was cultured in media containing 0.5 µgml^-1 puromycin and 25 mM HEPES. After 16 hours of incubation, metabolites were extracted from the cells using 80% methanol. The remaining steps were carried out by Weill Cornell Medicine Proteomics and Metabolomics Core Facility according to M. D. Goncalves et al., Proc Natl Acad Sci USA 115, E743-E752 (2018). All data analyses were done using MetaboAnalyst 4.0 (www.metaboanalyst.ca/).
To investigate whether 250 ppm CO mimics hypoxia, the HiF1α protein levels were examined in CO treated MCF7/TGL and MDA-MB-231/TGL cells. […] To determine whether 250 ppm CO affects metabolism, polar metabolites were profiled using two breast cancer cell lines, MCF7/TGL and MDA-MB-231/TGL (FIGS. 7-9).

[1] = MCF7/TGL cells, 250 ppm CO, 16 hours

SMILES: [C-]#[O+] [CO, Carbon monoxide]
- Peak Height Guanosine triphosphate (HMDB01273, MCF7/TGL cells treated with CO, replicates CO 1-3): 84,003 and 60,453 and 112,154
- Peak Height N6,N6,N6-Trimethyl-L-lysine (HMDB01325, MCF7/TGL cells treated with CO, replicates CO 1-3): 4,594,085 and 5,317,512 and 7,697,279
- Peak Height ADP (HMDB01341, MCF7/TGL cells treated with CO, replicates CO 1-3): 902,793 and 705,422 and 1,082,377
- Peak Height Thymidine 5′-triphosphate (HMDB01342, MCF7/TGL cells treated with CO, replicates CO 1-3): 54,889 and 34,363 and 35,046
- Peak Height N-Acetyl-glucosamine 1-phosphate (HMDB01367, MCF7/TGL cells treated with CO, replicates CO 1-3): 464,872 and 467,412 and 595,300
- Peak Height Guanosine monophosphate (HMDB01397, MCF7/TGL cells treated with CO, replicates CO 1-3): 73,405 and 58,750 and 80,249
- Peak Height Glucose 6-phosphate (HMDB01401, MCF7/TGL cells treated with CO, replicates CO 1-3): 1,799,795 and 2,339,699 and 3,140,759
- Peak Height Niacinamide (HMDB01406, MCF7/TGL cells treated with CO, replicates CO 1-3): 1,738,434 and 1,604,153 and 3,615,850
- Peak Height Citicoline (HMDB01413, MCF7/TGL cells treated with CO, replicates CO 1-3): 1,054,917 and 1,269,775 and 2,126,892
- Peak Height NADH (HMDB01487, MCF7/TGL cells treated with CO, replicates CO 1-3): 81,979 and 73,214 and 61,204
- Peak Height Asymmetric dimethylarginine (HMDB01539, MCF7/TGL cells treated with CO, replicates CO 1-3): 2,485,123 and 2,893,325 and 4,095,202
- Peak Height CDP (HMDB01546, MCF7/TGL cells treated with CO, replicates CO 1-3): 49,666 and 36,830 and 44,004
- Peak Height D-Ribose 5-phosphate (HMDB01548, MCF7/TGL cells treated with CO, replicates CO 1-3): 523,976 and 578,358 and 695,562
- Peak Height CDP-Ethanolamine (HMDB01564, MCF7/TGL cells treated with CO, replicates CO 1-3): 229,328 and 262,826 and 313,255
- Peak Height Phosphorylcholine (HMDB01565, MCF7/TGL cells treated with CO, replicates CO 1-3): 826,434,500 and 950,902,100 and 1,062,045,000
- Peak Height Glucose 1-phosphate (HMDB01586, MCF7/TGL cells treated with CO, replicates CO 1-3): 194,892 and 220,042 and 348,617
- Peak Height 2-Hydroxycaproic acid (HMDB01624, MCF7/TGL cells treated with CO, replicates CO 1-3): 663,141 and 926,482 and 905,559
- Peak Height DL-O-Phosphoserine (HMDB01721, MCF7/TGL cells treated with CO, replicates CO 1-3): 256,439 and 305,155 and 440,561
- Peak Height 2-Ketohexanoic acid (HMDB01864, MCF7/TGL cells treated with CO, replicates CO 1-3): 10,109,740 and 13,290,500 and 25,544,760
- Peak Height Acetylcysteine (HMDB01890, MCF7/TGL cells treated with CO, replicates CO 1-3): 309,165 and 445,217 and 662,532
- Peak Height Methionine sulfoxide (HMDB02005, MCF7/TGL cells treated with CO, replicates CO 1-3): 1,119,307 and 1,490,306 and 2,521,401
- Peak Height Imidazolelactic acid (HMDB02320, MCF7/TGL cells treated with CO, replicates CO 1-3): 128,890 and 215,532 and 355,864
- Peak Height Methylimidazoleacetic acid (HMDB02820, MCF7/TGL cells treated with CO, replicates CO 1-3): 2,032,579 and 2,307,084 and 4,227,106
- Peak Height Erythritol (HMDB02994, MCF7/TGL cells treated with CO, replicates CO 1-3): 124,085 and 149,580 and 273,411
- Peak Height Oxidized glutathione (HMDB03337, MCF7/TGL cells treated with CO, replicates CO 1-3): 1,351,310 and 1,735,245 and 4,066,758
- Peak Height L-Dihydroorotic acid (HMDB03349, MCF7/TGL cells treated with CO, replicates CO 1-3): 52,713 and 82,695 and 121,047
- Peak Height GDP-glucose (HMDB03351, MCF7/TGL cells treated with CO, replicates CO 1-3): 30,304 and 39,328 and 68,617
- Peak Height N-Acetylornithine (HMDB03357, MCF7/TGL cells treated with CO, replicates CO 1-3): 364,451 and 403,207 and 622,448
- Peak Height 4-Acetamidobutanoic acid (HMDB03681, MCF7/TGL cells treated with CO, replicates CO 1-3): 550,530 and 718,720 and 878,912
- Peak Height N-Acetylasparagine (HMDB06028, MCF7/TGL cells treated with CO, replicates CO 1-3): 279,146 and 204,547 and 192,934
- Peak Height N-Acetylglutamine (HMDB06029, MCF7/TGL cells treated with CO, replicates CO 1-3): 233,588 and 221,551 and 457,769
- Peak Height ADP-glucose (HMDB06557, MCF7/TGL cells treated with CO, replicates CO 1-3): 51,484 and 47,964 and 81,136
- Peak Height 4-Hydroxybenzaldehyde (HMDB11718, MCF7/TGL cells treated with CO, replicates CO 1-3): 1,638,500 and 1,711,975 and 2,780,422
- Peak Height N-Acetyl-L-methionine (HMDB11745, MCF7/TGL cells treated with CO, replicates CO 1-3): 1,517,454 and 1,648,819 and 2,302,821
- Peak Height D-2,3-Dihydroxypropanoic acid (HMDB31818, MCF7/TGL cells treated with CO, replicates CO 1-3): 2,390,333 and 3,141,171 and 4,932,187
- Peak Height 3-hydroxyhexadecanoic acid (HMDB61658, MCF7/TGL cells treated with CO, replicates CO 1-3): 11,142 and 13,344 and 11,314
- citric acid and phosphoenolpyruvic acid [1]: did not provide statistically significant results
- nine common metabolites (fumaric acid, L-Dihydroorotic acid, D-2-Hydroxyglutaric, malic acid, NAD, GDP-glucose, pyruvic acid, inosinic acid, oxoglutaric acid) [1]: significantly downregulated
- pyruvic acid, oxoglutaric acid, malic acid, and fumaric acid (TCA intermediates) [1]: significantly downregulated
- succinic acid [1]: significantly downregulated
- abundance of metabolites tested (metabolomics profiling) (MCF7/TGL/pQ cells, 250 ppm carbon monoxide for 16 hours): reduced the abundance of the majority of metabolites tested
